Where “and” joins values, the source holds several entries; their conditions need not be identical. Equal entries are not always repeated.
Assays:
human SMAD7 mRNA [1] = experiment: Dose-dependent inhibition of human SMAD7 mRNA expression in Hep3B cells (Example 3, Study 1 and 2); format: cell-based; conditions: electroporation; for % inhibition of SMAD7 mRNA expression: approximately 16 hours; for IC50: Study 2 (740-20000 nM)
Summary of the method: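 Hep3B cells, 20,000 per well, electroporated with antisense oligonucleotide at 0.31, 1.25, 5.00 or 20.00 μM (first series) or 0.74, 2.22, 6.67 or 20.00 μM (second series). After ~16 h, SMAD7 mRNA measured by RT-qPCR (RTS5062), normalised to RIBOGREEN total RNA. Percent inhibition vs untreated cells; IC50 derived.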

[2] = Organ weights after subcutaneous administration in CD-1 mice (Example 6); format: in vivo; conditions: end of study, 50 mg/kg subcutaneously twice a week for 7 weeks
Method: Groups of 8-9 week old male CD-1 mice were injected subcutaneously twice a week for 7 weeks with 50 mg/kg of Ionis oligonucleotides (100 mg/kg/week dose). Each group contained 4 mice. One group of male CD-1 mice was injected subcutaneously twice a week for 7 weeks with PBS. Plasma was collected for analysis on day 28.
Ionis SMAD7 oligonucleotides that caused any changes in organ weights outside the expected range for antisense oligonucleotides were excluded from further studies.

mouse Smad7 mRNA = experiment: Murine Smad7 mRNA expression after oral administration in BALB/c mice (Example 11); format: in vivo; conditions: 500 mg/kg/day oral for 3 weeks, 24 hours after last dose
Method: The objective of this study was to evaluate the efficacy of Ionis SMAD7 antisense oligonucleotides in BALB/c mice following daily oral administration. The Ionis oligonucleotides are cross-reactive with mouse Smad7 mRNA.
Groups of BALB/c mice were orally administered 500 mg/kg/day for 3 weeks of human Smad7 oligonucleotides, ION 790615, ION 798781, or ION 830025, or mouse Smad7 oligonucleotide, ION 772797 (a 3-10-3 cEt gapmer with phosphorothioate backbone and sequence […]; designated herein as SEQ ID NO: 2743). One group of mice was orally administered PBS daily for 3 weeks. Each group contained 4 mice.
To evaluate the efficacy of the oligonucleotides, murine Smad7 mRNA expression in the liver, kidneys, duodenum, ileum, and colon was measured using primer probe set RTS1114.

[3] = Pharmacokinetics: oligonucleotide concentration in the plasma on day 28 after oral gavage in beagle dogs (Example 12); format: in vivo; conditions: 200 mg oral gavage
Method: There were 4 animals per group.
Plasma concentrations of Ionis oligonucleotides were also measured on Day 28 at various time points.

murine Smad7 mRNA = experiment: Dose-dependent inhibition of murine Smad7 mRNA in bEND cells, electroporation (Example 5, Study 2); format: cell-based, mouse; conditions: electroporation; for % inhibition of SMAD7 mRNA expression: approximately 16 hours
Summary of the method: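 Mouse bEND cells electroporated with oligonucleotide at several doses and treated for approximately 16 hours. Smad7 mRNA quantified by real-time RT-PCR (primer probe set RTS1114), normalised to total RNA by RiboGreen. Reported as percent inhibition relative to untreated cells.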

human SMAD7 mRNA [4] = experiment: Dose-dependent inhibition of human SMAD7 mRNA expression in A431 cells, oligonucleotide added without transfection (Example 5, Study 1); format: cell-based; conditions: approximately 48 hours; for IC50: SMAD7 mRNA
Summary of the method: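 A431 cells dosed with antisense oligonucleotide at 0.08–20.00 μM by free uptake immediately after plating, 48 h at 37° C. SMAD7 mRNA quantified by qRT-PCR (primer probe set RTS5062), normalised to RiboGreen total RNA. Values are % inhibition versus untreated cells.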

[5] = Organ weights after oral gavage in beagle dogs (Example 12); conditions: 200 mg oral gavage for 4 weeks, day 30
Method: Groups of 24-25 week old male beagle dogs were administered 200 mg Ionis human SMAD7 oligonucleotide by oral gavage once a week for 4 weeks. There were 4 animals per group. A control group of dogs received oral administration of distilled water. Dogs were sacrificed on day 30 approximately 48 hours after the final dose and organs and plasma were harvested for further analysis.

[6] = 740 nM, Study 2, relative to untreated control cells

Substance | % inhibition of SMAD7 mRNA expression (human SMAD7 mRNA [1]; [6]) | % inhibition of SMAD7 mRNA expression (human SMAD7 mRNA [1]; 2220 nM, Study 2) | % inhibition of SMAD7 mRNA expression (human SMAD7 mRNA [1]; 6670.0 nM, Study 2) | % inhibition of SMAD7 mRNA expression (human SMAD7 mRNA [1]; 20000.0 nM, Study 2) | IC50 (human SMAD7 mRNA [1]) | Organ weights, Kidneys [2] | Organ weights, Liver [2] | Organ weights, Spleen [2] | % inhibition of SMAD7 mRNA expression (murine Smad7 mRNA; 0.25 μM) | % inhibition of SMAD7 mRNA expression (murine Smad7 mRNA; 0.74 μM) | % inhibition of SMAD7 mRNA expression (murine Smad7 mRNA; 2.22 μM) | % inhibition of SMAD7 mRNA expression (murine Smad7 mRNA; 6.67 μM) | % inhibition of SMAD7 mRNA expression (murine Smad7 mRNA; 20.00 μM) | IC50 (murine Smad7 mRNA) | % inhibition of SMAD7 mRNA expression (human SMAD7 mRNA [4]; 0.08 μM) | % inhibition of SMAD7 mRNA expression (human SMAD7 mRNA [4]; 0.25 μM) | % inhibition of SMAD7 mRNA expression (human SMAD7 mRNA [4]; 0.74 μM) | % inhibition of SMAD7 mRNA expression (human SMAD7 mRNA [4]; 2.22 μM) | % inhibition of SMAD7 mRNA expression (human SMAD7 mRNA [4]; 6.67 μM) | % inhibition of SMAD7 mRNA expression (human SMAD7 mRNA [4]; 20.00 μM) | further results
829994 (GGAGGCAGGGCCGCGA; 3-10-3 cEt gapmer, further chemistry not given here) [compound 829994] | 25% | 54% | 69% | 80% | 1 µM | 0.7 g | 2.6 g | 0.3 g |  |  |  |  |  |  |  |  |  |  |  |  | 
830025 (antisense TTTGTAAATCGAAAGC; 3-10-3 cEt gapmer, further chemistry not given here) [compound 830025] | 42% | 58% | 72% | 88% | < 0.7 µM | 0.6 g | 2.2 g | 0.2 g | 15% | 27% | 51% | 67% | 77% | 2.7 µM | 16% | 30% | 22% | 41% | 54% | 67% | Mouse Smad7 mRNA expression (% inhibition), Colon (mouse Smad7 mRNA): 39 % inhibition; Mouse Smad7 mRNA expression (% inhibition), Duodenum (mouse Smad7 mRNA): 51 % inhibition; Mouse Smad7 mRNA expression (% inhibition), Ileum (mouse Smad7 mRNA): 0 % inhibition; Mouse Smad7 mRNA expression (% inhibition), Kidney (mouse Smad7 mRNA): 31 % inhibition; Mouse Smad7 mRNA expression (% inhibition), Liver (mouse Smad7 mRNA): 25 % inhibition; Oligonucleotide concentration in the plasma on day 28 ([3]; 2 hr): 13.6 ng/mL; Oligonucleotide concentration in the plasma on day 28 ([3]; 4 hr): 3.8 ng/mL; Oligonucleotide concentration in the plasma on day 28 ([3]; 8 hr): 1.7 ng/mL; Oligonucleotide concentration in the plasma on day 28 ([3]; 24 hr): 0.0 ng/mL; IC50 (human SMAD7 mRNA [4]): 4.7 µM; Kidney weight (% of control) [5]: 99 % of control; Liver weight (% of control) [5]: 79 % of control; Spleen weight (% of control) [5]: 87 % of control
830037 (antisense CTATTGGCTGATCTGG; 3-10-3 cEt gapmer, further chemistry not given here) [compound 830037] | 30% | 56% | 70% | 87% | 3 µM |  |  |  | 0% | 6% | 1% | 0% | 0% | > 20 µM | 10% | 31% | 29% | 42% | 61% | 67% | IC50 (human SMAD7 mRNA [4]): 3.4 µM
798781 (CGTAAGATTCACAGCA; 3-10-3 cEt gapmer, further chemistry not given here) [compound 798781] | 46% | 64% | 81% | 87% | 2 µM | 0.6 g | 2.3 g | 0.1 g | 0% | 0% | 20% | 33% | 51% | 19.8 µM | 23% | 34% | 41% | 41% | 57% | 62% | Mouse Smad7 mRNA expression (% inhibition), Colon (mouse Smad7 mRNA): 0 % inhibition; Mouse Smad7 mRNA expression (% inhibition), Duodenum (mouse Smad7 mRNA): 47 % inhibition; Mouse Smad7 mRNA expression (% inhibition), Ileum (mouse Smad7 mRNA): 0 % inhibition; Mouse Smad7 mRNA expression (% inhibition), Kidney (mouse Smad7 mRNA): 12 % inhibition; Mouse Smad7 mRNA expression (% inhibition), Liver (mouse Smad7 mRNA): 0 % inhibition; Oligonucleotide concentration in the plasma on day 28 ([3]; 2 hr): 18.7 ng/mL; Oligonucleotide concentration in the plasma on day 28 ([3]; 4 hr): 5.4 ng/mL; Oligonucleotide concentration in the plasma on day 28 ([3]; 8 hr): 3.6 ng/mL; Oligonucleotide concentration in the plasma on day 28 ([3]; 24 hr): 0.4 ng/mL; IC50 (human SMAD7 mRNA [4]): 3.6 µM; Kidney weight (% of control) [5]: 86 % of control; Liver weight (% of control) [5]: 91 % of control; Spleen weight (% of control) [5]: 102 % of control
830121 (AGAATCAAGCCCTGGC; 3-10-3 cEt gapmer, further chemistry not given here) [compound 830121] | 37% and 54% | 48% and 63% | 69% and 79% | 85% and 86% | < 0.7 µM | 0.6 g | 2.4 g | 0.2 g | 0% | 6% | 12% | 17% | 20% | > 20 µM | 11% | 18% | 27% | 21% | 35% | 44% | IC50 (human SMAD7 mRNA [4]): > 20 µM
790615 (CCAATGAGAATGCTTC; 3-10-3 cEt gapmer, further chemistry not given here) [compound 790615] |  |  |  |  |  | 0.6 g | 2.0 g | 0.2 g | 7% | 18% | 37% | 47% | 64% | 7.3 µM | 14% | 43% | 55% | 63% | 70% | 75% | Mouse Smad7 mRNA expression (% inhibition), Colon (mouse Smad7 mRNA): 72 % inhibition; Mouse Smad7 mRNA expression (% inhibition), Duodenum (mouse Smad7 mRNA): 54 % inhibition; Mouse Smad7 mRNA expression (% inhibition), Ileum (mouse Smad7 mRNA): 0 % inhibition; Mouse Smad7 mRNA expression (% inhibition), Kidney (mouse Smad7 mRNA): 41 % inhibition; Mouse Smad7 mRNA expression (% inhibition), Liver (mouse Smad7 mRNA): 52 % inhibition; Oligonucleotide concentration in the plasma on day 28 ([3]; 2 hr): 16.7 ng/mL; Oligonucleotide concentration in the plasma on day 28 ([3]; 4 hr): 4.8 ng/mL; Oligonucleotide concentration in the plasma on day 28 ([3]; 8 hr): 0.5 ng/mL; Oligonucleotide concentration in the plasma on day 28 ([3]; 24 hr): 0.0 ng/mL; IC50 (human SMAD7 mRNA [4]): 0.7 µM; Kidney weight (% of control) [5]: 94 % of control; Liver weight (% of control) [5]: 85 % of control; Spleen weight (% of control) [5]: 106 % of control

Reference: US10517889B2, “Modulators of SMAD7 expression” (Ionis Pharmaceuticals, Inc., priority 2017, dated 2019)
